Laboratory results published in patent US20030229053A1, “Compounds and methods for the treatment or prevention of flavivirus infections” (Shire BioChem Inc., priority 2001, published 2003).

Each compound was assayed against recombinant HCV NS5B (Hepatitis C virus genotype 1b, UniProt P26663) (assay: biochemical). Conditions: flashplate, polyrA/biotinylated-oligo dT, 100 nM NS5B, 2 hrs at room temperature; read-out: RNA pol Assay 2 IC50 (μm).
Description: In vitro HCV RdRp Flashplate Scintillation Proximity Assay (Strep-Flash Assay) Used to Evaluate Analogues:
In brief, a 400 ng/μl polyrA solution (Amersham Pharmacia Biotech) was mixed volume-to-volume with 5′ biotin-oligo dT12 at 20 pmol/μl. The template and primers were denatured at 95 C for 5 minutes then incubated at 37 C for 10 minutes. Annealed template-primers were subsequently diluted in a Tris-HCl containing buffer and allowed to bind to streptavidin-coated flashplates overnight.

recombinant HCV NS5B, sequence (P26663 2420-3010 limits assumed): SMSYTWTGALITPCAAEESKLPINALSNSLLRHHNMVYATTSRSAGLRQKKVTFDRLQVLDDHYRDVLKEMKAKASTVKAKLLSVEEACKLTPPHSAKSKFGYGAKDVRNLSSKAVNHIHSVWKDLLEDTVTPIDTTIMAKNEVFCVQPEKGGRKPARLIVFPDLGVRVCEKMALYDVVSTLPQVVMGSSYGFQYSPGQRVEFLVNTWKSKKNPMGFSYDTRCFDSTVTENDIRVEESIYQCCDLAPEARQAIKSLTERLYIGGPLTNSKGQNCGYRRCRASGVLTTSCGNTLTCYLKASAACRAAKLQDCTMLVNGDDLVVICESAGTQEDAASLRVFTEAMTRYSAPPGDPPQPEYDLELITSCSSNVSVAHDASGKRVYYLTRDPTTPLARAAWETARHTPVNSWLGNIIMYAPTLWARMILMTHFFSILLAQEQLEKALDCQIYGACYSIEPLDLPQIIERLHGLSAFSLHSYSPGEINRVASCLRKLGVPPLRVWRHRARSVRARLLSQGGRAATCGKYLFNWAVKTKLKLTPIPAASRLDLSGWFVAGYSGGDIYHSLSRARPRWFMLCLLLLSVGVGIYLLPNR

IC50, > 20 µM:
O=C(O)[C@H](Cc1ccccc1)N(C(=O)c1ccc(Cl)cc1Cl)c1ccc(Br)cc1 [compound #191, 2-[(4-Bromo-phenyl)-(2,4-dichloro-benzoyl)-amino]-3-phenyl-propionic acid]

IC50, 5 to 20 µM:
O=C(O)C(Cc1ccccc1)N(Cc1cccc(Oc2ccc(Cl)cc2)c1)C(=O)c1ccc(Cl)cc1Cl (stereo not drawn) [compound #175, 2-[[3-(4-Chloro-phenoxy)-benzyl]-(2,4-dichloro-benzoyl)-amino]-3-phenyl-propionic acid]
O=C(O)C(Cc1ccccc1)N(Cc1ccccc1OCc1ccccc1)C(=O)c1ccc(Cl)cc1Cl (stereo not drawn) [compound #177, 2-[(2-Benzyloxy-benzyl)-(2,4-dichloro-benzoyl)-amino]-3-phenyl-propionic acid]
COc1ccc(C(C)C)cc1-c1ccsc1CN(C(=O)c1ccc(Cl)cc1Cl)[C@@H](Cc1ccccc1)C(=O)O [compound #178, 2-{(2,4-Dichloro-benzoyl)-[3-(5-isopropyl-2-methoxy-phenyl)-thiophen-2-ylmethyl]-amino}-3-phenyl-propionic acid]
O=C(O)[C@H](Cc1ccccc1)N(Cc1sccc1-c1ccc(OC(F)(F)F)cc1)C(=O)c1ccc(Cl)cc1Cl [compound #179, 2-{(2,4-Dichloro-benzoyl)-[3-(4-trifluoromethoxy-phenyl)-thiophen-2-ylmethyl]-amino}-3-phenyl-propionic acid]
O=C(O)[C@H](Cc1ccccc1)N(Cc1sccc1-c1cccc(C(F)(F)F)c1)C(=O)c1ccc(Cl)cc1Cl [compound #180, 2-{(2,4-Dichloro-benzoyl)-[3-(3-trifluoromethyl-phenyl)-thiophen-2-ylmethyl]-amino}-3-phenyl-propionic acid]
O=C(O)[C@H](Cc1ccccc1)N(Cc1sccc1-c1cc(C(F)(F)F)cc(C(F)(F)F)c1)C(=O)c1ccc(Cl)cc1Cl [compound #181, 2-[[3-(3,5-Bis-trifluoromethyl-phenyl)-thiophen-2-ylmethyl]-(2,4-dichloro-benzoyl)-amino]-3-phenyl-propionic acid]
O=C(O)[C@H](Cc1ccccc1)N(Cc1sccc1-c1ccncc1)C(=O)c1ccc(Cl)cc1Cl [compound #182, 2-[(2,4-Dichloro-benzoyl)-(3-pyridin-4-yl-thiophen-2-ylmethyl)-amino]-3-phenyl-propionic acid]
CSc1ccc(-c2ccsc2CN(C(=O)c2ccc(Cl)cc2Cl)[C@@H](Cc2ccccc2)C(=O)O)cc1 [compound #183, 2-{(2,4-Dichloro-benzoyl)-[3-(4-methylsulfanyl-phenyl)-thiophen-2-ylmethyl]-amino}-3-phenyl-propionic acid]
O=C(O)[C@H](Cc1ccccc1)N(Cc1ccccc1Br)C(=O)c1ccc(Cl)cc1Cl [compound #187, 2-[(2-Bromo-benzyl)-(2,4-dichloro-benzoyl)-amino]-3-phenyl-propionic acid]
CN(C(=O)c1ccc(Cl)cc1Cl)[C@@H](Cc1ccccc1Br)C(=O)O [compound #188, 3-(2-Bromo-phenyl)-2-[(2,4-dichloro-benzoyl)-methyl-amino]-propionic acid]
O=C(O)C(Cc1ccccc1)N(C(=O)c1ccc(Cl)cc1Cl)c1cccc(Br)c1 (stereo not drawn) [compound #190, 2-[(3-Bromo-phenyl)-(2,4-dichloro-benzoyl)-amino]-3-phenyl-propionic acid]

IC50, < 5 µM:
O=C(O)[C@H](Cc1ccccc1)N(Cc1sccc1-c1ccc(F)cc1)C(=O)c1ccc(Cl)cc1Cl [compound #184, 2-{(2,4-Dichloro-benzoyl)-[3-(4-fluoro-phenyl)-thiophen-2-ylmethyl]-amino}-3-phenyl-propionic acid]
O=C(O)[C@H](Cc1ccccc1)N(Cc1sccc1-c1cccnc1)C(=O)c1ccc(Cl)cc1Cl [compound #185, 2-[(2,4-Dichloro-benzoyl)-(3-pyridin-3-yl-thiophen-2-ylmethyl)-amino]-3-phenyl-propionic acid]
CN(C(=O)c1ccc(Cl)cc1Cl)[C@H](Cc1ccc(Br)cc1)C(=O)O [compound #189, 3-(4-Bromo-phenyl)-2-[(2,4-dichloro-benzoyl)-methyl-amino]-propionic acid]
